Laboratory results as given in ChEMBL document CHEMBL1134501, “Structure-activity studies for a novel series of bicyclic substituted hexahydrobenz[e]isoindole alpha1A adrenoceptor antagonists as potential agents for the symptomatic treatment of benign prostatic hyperplasia” (J Med Chem, 2001).

Key:
[1] = target: T1, Alpha-1A adrenergic receptor (Rattus norvegicus, UniProt P43140); experiment: Binding affinity to alpha-1A adrenergic receptor in rat submaxillary gland; type: tissue-based
T1 sequence (P43140 whole entry): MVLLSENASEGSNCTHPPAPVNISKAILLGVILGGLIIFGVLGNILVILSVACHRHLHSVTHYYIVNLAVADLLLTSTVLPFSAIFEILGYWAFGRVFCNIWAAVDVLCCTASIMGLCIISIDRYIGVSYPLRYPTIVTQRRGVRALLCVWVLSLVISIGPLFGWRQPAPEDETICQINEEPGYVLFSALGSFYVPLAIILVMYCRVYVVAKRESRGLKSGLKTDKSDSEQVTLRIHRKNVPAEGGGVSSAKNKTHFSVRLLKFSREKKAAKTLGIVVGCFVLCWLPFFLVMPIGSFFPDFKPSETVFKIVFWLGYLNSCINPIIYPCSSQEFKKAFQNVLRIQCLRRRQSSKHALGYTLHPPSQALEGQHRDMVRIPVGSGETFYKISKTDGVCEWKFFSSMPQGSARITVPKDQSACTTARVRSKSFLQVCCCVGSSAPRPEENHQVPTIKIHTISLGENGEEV

Cricetulus griseus = species on record: Cricetulus griseus; experiment: Selectivity ratio (alpha-1B/alpha-1A) of the compound
[2] = target: T2, Alpha-1D adrenergic receptor (Rattus norvegicus, UniProt P23944); experiment: Binding affinity to rat alpha-1D adrenergic receptor expressed in LTK cells; type: cell-based
T2 sequence (P23944 whole entry): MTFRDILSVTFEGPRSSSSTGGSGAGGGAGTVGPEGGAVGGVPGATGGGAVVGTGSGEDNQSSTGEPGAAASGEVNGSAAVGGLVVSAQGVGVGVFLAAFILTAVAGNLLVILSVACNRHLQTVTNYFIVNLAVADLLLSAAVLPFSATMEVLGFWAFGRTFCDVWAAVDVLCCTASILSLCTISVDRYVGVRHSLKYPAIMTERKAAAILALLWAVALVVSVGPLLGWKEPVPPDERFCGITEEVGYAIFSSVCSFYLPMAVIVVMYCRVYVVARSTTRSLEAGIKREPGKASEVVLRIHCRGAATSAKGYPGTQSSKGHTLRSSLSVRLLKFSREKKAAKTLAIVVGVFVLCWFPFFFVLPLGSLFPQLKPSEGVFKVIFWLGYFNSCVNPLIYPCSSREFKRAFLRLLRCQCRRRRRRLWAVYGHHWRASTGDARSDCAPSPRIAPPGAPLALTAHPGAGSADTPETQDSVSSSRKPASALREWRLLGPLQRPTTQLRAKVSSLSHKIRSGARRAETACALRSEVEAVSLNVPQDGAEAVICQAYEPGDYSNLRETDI

Canis familiaris = experiment: In vivo antagonist dissociation constant in intaraurethral pressure model in dogs.; conditions: Canis lupus familiaris, read-out: pA2 (converted)
[3] = target: T3, Alpha-1B adrenergic receptor (Rattus norvegicus, UniProt P15823); experiment: In vitro antagonistic activity against alpha-1B receptor in rat spleen.; type: functional, tissue-based; conditions: read-out: pA2 (converted)
T3 sequence (P15823 whole entry): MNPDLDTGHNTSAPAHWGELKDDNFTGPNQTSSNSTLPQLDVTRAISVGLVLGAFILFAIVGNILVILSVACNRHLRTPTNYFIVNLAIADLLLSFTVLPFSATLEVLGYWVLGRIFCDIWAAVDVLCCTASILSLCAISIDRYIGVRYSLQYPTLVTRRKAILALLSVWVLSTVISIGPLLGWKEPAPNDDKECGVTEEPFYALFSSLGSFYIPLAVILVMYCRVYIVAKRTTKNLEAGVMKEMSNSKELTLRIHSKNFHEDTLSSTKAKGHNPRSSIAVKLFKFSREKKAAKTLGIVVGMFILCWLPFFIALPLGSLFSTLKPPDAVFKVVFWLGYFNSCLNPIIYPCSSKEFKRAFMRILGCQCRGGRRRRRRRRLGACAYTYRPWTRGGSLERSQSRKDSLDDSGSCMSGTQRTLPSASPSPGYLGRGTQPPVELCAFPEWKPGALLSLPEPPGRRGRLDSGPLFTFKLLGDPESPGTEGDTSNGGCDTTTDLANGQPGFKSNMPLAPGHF

Rattus norvegicus = species on record: Rattus norvegicus; experiment: Antagonistic activity in spontaneously hypertensive rat model.; type: functional
[4] = Selectivity ratio (antolog[pA2rat vas deferens/pA2 rat spleen]) of the compound; type: functional
[5] = target: Alpha-1A adrenergic receptor (Canis familiaris); experiment: In vitro antagonistic activity against alpha-1A receptor in dog prostate.; conditions: read-out: pA2 (converted)
[6] = target: T1, Alpha-1A adrenergic receptor; experiment: In vitro antagonistic activity towards alpha-1A adrenergic receptor in rat vas deferens; type: functional, tissue-based; conditions: read-out: pA2 (converted)

Row | Structure (SMILES) | Ki [1] | Ratio (Cricetulus griseus) | Ki [2] | further results
1 | COc1cccc2c1CC[C@H]1CN(CCn3c(=O)[nH]c4cccc(C)c4c3=O)C[C@@H]21 | 1.15 nM | 0.9 | 1.13 nM | –
2 | COc1cccc2c1CC[C@H]1CN(CCn3c(=O)[nH]c4c(OC)cccc4c3=O)C[C@@H]21 | 0.85 nM | 2.67 | 1.15 nM | –
3 | COc1cccc2c1CC[C@H]1CN(CCn3c(=O)[nH]c4cc(-c5ccccc5)sc4c3=O)C[C@@H]21 | 7.73 nM | 1.5 | 4.4 nM | –
4 | COc1cc2[nH]c(=O)n(CCN3C[C@@H]4CCc5c(OC)cccc5[C@@H]4C3)c(=O)c2cc1OC | – | – | 1.4 nM | –
5 | COc1cccc2c1CC[C@H]1CN(CCn3c(=O)[nH]c4cc(C)c(C)cc4c3=O)C[C@@H]21 | 1.38 nM | 2.94 | 0.73 nM | –
6 | CCOc1ccccc1OCCN[C@H](C)Cc1ccc(OC)c(S(N)(=O)=O)c1 [TAMSULOSIN] | – | – | – | Kb (Canis familiaris): 1.35 nM
7 | COc1cccc2c1CC[C@H]1CN(CCn3c(=O)[nH]c4nccnc4c3=O)C[C@@H]21 | 9.22 nM | 1.36 | 5.49 nM | –
8 | COc1cccc2c1CC[C@H]1CN(CCn3c(=O)[nH]c4cscc4c3=O)C[C@@H]21 | 0.48 nM | 2.1 | 0.52 nM | –
9 | COc1cc2ncn(CCN3C[C@@H]4CCc5c(OC)cccc5[C@@H]4C3)c(=O)c2cc1OC | – | – | 7.79 nM | Kb [3]: 85.1 nM; Kb (Canis familiaris): 5.01 nM; pED50 (Rattus norvegicus): 5.32
10 | COc1cc2c(cc1OC)NCN(CCN1C[C@@H]3CCc4c(OC)cccc4[C@@H]3C1)C2 | 62.2 nM | 1.01 | 189 nM | –
11 | COc1cccc2c1CC[C@H]1CN(CCn3c(=O)[nH]c4cc(C#N)ccc4c3=O)C[C@@H]21 | 0.09 nM | 17.3 | 0.77 nM | Ratio [4]: 12.59; Kb [3]: 18.6 nM; Kb [5]: 0.148 nM; Kb [6]: 1.48 nM
12 | COc1cccc2c1CC[C@H]1CN(CCn3c(=O)[nH]c4c(OC)c(OC)ccc4c3=O)C[C@@H]21 | 0.04 nM | 16.5 | 0.68 nM | Ratio [4]: 5.62
13 | COc1cccc2c1CC[C@H]1CN(CCn3c(=O)[nH]c4c(C)cc(C)cc4c3=O)C[C@@H]21 | 2.73 nM | 5.96 | 2.86 nM | –
14 | COc1cc2c(cc1OC)NC(=O)N(CCN1C[C@@H]3CCc4c(OC)cccc4[C@@H]3C1)C2 | 123 nM | 1.5 | 168 nM | –
15 | COc1cccc2c1CC[C@H]1CN(CCn3c(=O)[nH]c4cccc(Cl)c4c3=O)C[C@@H]21 | 0.71 nM | 1.31 | 0.69 nM | –
16 | COc1cccc2c1CC[C@H]1CN(CCn3c(=O)[nH]c4sccc4c3=O)C[C@@H]21 | 1.03 nM | 2.04 | 1.01 nM | –
17 | COc1cccc2c1CC[C@H]1CN(CCn3c(=O)[nH]c4cnccc4c3=O)C[C@@H]21 | 1.41 nM | 2.19 | 1.78 nM | –
18 | COc1cc2[nH]c(=O)n(CCN3C[C@@H]4CCc5c(OC)cccc5[C@@H]4C3)c(=O)c2s1 | 0.04 nM | 18 | 0.24 nM | –
19 | COc1cccc2c1CC[C@H]1CN(CCn3c(=O)[nH]c4c(C)csc4c3=O)C[C@@H]21 | 0.85 nM | – | 0.71 nM | –
20 | COc1cccc2c1CC[C@H]1CN(CCn3c(=O)[nH]c4cc([N+](=O)[O-])ccc4c3=O)C[C@@H]21 | 0.91 nM | 3.65 | 1.2 nM | –
21 | COc1cc2c(cc1OC)CN(CCN1C[C@@H]3CCc4c(OC)cccc4[C@@H]3C1)CC2 | 80.7 nM | 1.43 | 83.4 nM | –
22 | COc1cc(N)c(C(=O)NCCN2C[C@@H]3CCc4c(OC)cccc4[C@@H]3C2)cc1OC | 3.75 nM | 7.8 | 32.7 nM | –
